Measurements as given in ChEMBL document CHEMBL3286163, “The pterocarpanquinone LQB-118 inhibits tumor cell proliferation by downregulation of c-Myc and cyclins D1 and B1 mRNA and upregulation of p21 cell cycle inhibitor expression” (Bioorg Med Chem, 2014).
≈ marks a conversion by molar mass, not a printed value. Calls of active or inactive are those of the source. The rule behind the calls is not given here.

Key:
Thymocyte = assay: Induction of apoptosis in mouse thymocytes assessed as internucleosomal DNA fragmentation at 1 uM after 24 hrs by agarose gel electrophoresis; assay type: functional, cell-based
[1] = Cytotoxicity against human RWPE1 cells assessed as inhibition of cell viability after 48 hrs by MTT assay; assay type: cell-based, RWPE-1; conditions: for IC50: Homo sapiens, RWPE-1, 48 h
PC-3 [2] = assay: Induction of apoptosis in human PC3 cells assessed as internucleosomal DNA fragmentation at 5 ug/ml after 48 hrs by agarose gel electrophoresis; assay type: functional, cell-based
PC-3 [3] = assay: Cell cycle arrest in human PC3 cells assessed as cell accumulation at G2/M phase at 5 ug/ml after 48 hrs by propidium idoide staining based flow cytometry (reference value: 22.2%); assay type: functional
PC-3 [4] = assay: Induction of apoptosis in human PC3 cells assessed as proportion of late apoptotic cells at 5 ug/ml after 48 hrs by annexin-V-FITC/propidium iodide staining based flow cytometry (reference value: 6.6 +/- 1.2%); assay type: functional
PC-3 [5] = assay: Induction of apoptosis in human PC3 cells assessed as proportion of necrotic cells at 5 ug/ml after 48 hrs by annexin-V-FITC/propidium iodide staining based flow cytometry (reference value: 0.8 +/- 0.9%); assay type: functional
PC-3 [6] = assay: Decrease in cyclin B1 mRNA expression in human PC3 cells after 48 hrs by RT-PCR analysis; assay type: functional
PC-3 [7] = assay: Increase in c-Myc mRNA expression in human PC3 cells after 48 hrs by RT-PCR analysis; assay type: functional
PC-3 [8] = assay: Cytotoxicity against human PC3 cells assessed as inhibition of cell viability after 48 hrs by MTT assay; assay type: functional, cell-based; conditions: for IC50: PC-3, 48 h
PC-3 [9] = assay: Cell cycle arrest in human PC3 cells assessed as cell accumulation at G2/M phase at 1.7 ug/ml after 48 hrs by propidium idoide staining based flow cytometry (reference value: 22.2%); assay type: functional
PC-3 [10] = assay: Induction of apoptosis in human PC3 cells assessed as proportion of early apoptotic cells at 5 ug/ml after 48 hrs by annexin-V-FITC/propidium iodide staining based flow cytometry (reference value: 6.7 +/- 2%); assay type: functional
PC-3 [11] = assay: Cell cycle arrest in human PC3 cells assessed as cell accumulation at G1 phase at 5 ug/ml after 48 hrs by propidium idoide staining based flow cytometry (reference value: 68%); assay type: functional
PC-3 [12] = assay: Induction of apoptosis in human PC3 cells assessed as proportion of necrotic cells at 1.7 ug/ml after 48 hrs by annexin-V-FITC/propidium iodide staining based flow cytometry (reference value: 0.8 +/- 0.9%); assay type: functional
PC-3 [13] = assay: Induction of apoptosis in human PC3 cells assessed as proportion of late apoptotic cells at 1.7 ug/ml after 48 hrs by annexin-V-FITC/propidium iodide staining based flow cytometry (reference value: 6.6 +/- 1.2%); assay type: functional
PC-3 [14] = assay: Decrease in cyclin D1 mRNA expression in human PC3 cells after 48 hrs by RT-PCR analysis; assay type: functional
PC-3 [15] = assay: Increase in p21 mRNA expression in human PC3 cells at 5 ug/ml after 24 to 48 hrs by RT-PCR analysis; assay type: functional, cell-based
PC-3 [16] = assay: Increase in p21 protein expression in human PC3 cells at 5 ug/ml after 48 hrs by flow cytometry; assay type: functional, cell-based
PC-3 [17] = assay: Cell cycle arrest in human PC3 cells assessed as cell accumulation at S phase at 5 ug/ml after 48 hrs by propidium idoide staining based flow cytometry (reference value: 9.8%); assay type: functional
PC-3 [18] = assay: Induction of apoptosis in human PC3 cells assessed as proportion of early apoptotic cells at 1.7 ug/ml after 48 hrs by annexin-V-FITC/propidium iodide staining based flow cytometry (reference value: 6.7 +/- 2%); assay type: functional
PC-3 [19] = assay: Cell cycle arrest in human PC3 cells assessed as cell accumulation at S phase at 1.7 ug/ml after 48 hrs by propidium idoide staining based flow cytometry (reference value: 9.8%); assay type: functional
PC-3 [20] = assay: Cell cycle arrest in human PC3 cells assessed as cell accumulation at G1 phase at 1.7 ug/ml after 48 hrs by propidium idoide staining based flow cytometry (reference value: 68%); assay type: functional
LNCaP = assay: Cytotoxicity against human LNCAP cells assessed as inhibition of cell viability after 48 hrs by MTT assay; assay type: functional, cell-based
PC-3 [21] = assay: Decrease in c-Myc mRNA expression in human PC3 cells after 48 hrs by RT-PCR analysis; assay type: functional
PC-3 [22] = assay: Cytotoxicity against human PC3 cells assessed as inhibition of cell viability at 1 ug/ml after 48 hrs by MTT assay; assay type: functional; conditions: PC-3, 48 h
PC-3 [23] = assay: Antiproliferative activity against human PC3 cells assessed as inhibition of cell growth at 1.7 ug/ml after 24 hrs by trypan blue dye exclusion assay; assay type: functional; conditions: PC-3, 24 h, read-out: GI
PC-3 [24] = assay: Antiproliferative activity against human PC3 cells assessed as inhibition of cell growth at 5 ug/ml after 24 hrs by trypan blue dye exclusion assay; assay type: functional; conditions: PC-3, 24 h, read-out: GI
PC-3 [25] = assay: Decrease in cyclin B1 mRNA expression in human PC3 cells after 24 hrs by RT-PCR analysis; assay type: functional
PC-3 [26] = assay: Increase in p21 protein expression in human PC3 cells at 5 ug/ml after 24 to 48 hrs by flow cytometry; assay type: functional, cell-based
PC-3 [27] = assay: Antiproliferative activity against human PC3 cells assessed as inhibition of cell growth at 5 ug/ml after 72 hrs by trypan blue dye exclusion assay; assay type: functional; conditions: PC-3, 72 h, read-out: GI
PC-3 [28] = assay: Decrease in cyclin D1 mRNA expression in human PC3 cells after 24 hrs by RT-PCR analysis; assay type: functional
[29] = Cytotoxicity against human RWPE1 cells assessed as inhibition of cell viability at 2.5 ug/ml after 48 hrs by MTT assay; assay type: cell-based; conditions: rwpe-1, 48 h
PC-3 [30] = assay: Antiproliferative activity against human PC3 cells assessed as inhibition of cell growth at 1.7 ug/ml after 48 hrs by trypan blue dye exclusion assay; assay type: functional; conditions: PC-3, 48 h, read-out: GI
PC-3 [31] = assay: Antiproliferative activity against human PC3 cells assessed as inhibition of cell growth at 1.7 ug/ml after 72 hrs by trypan blue dye exclusion assay; assay type: functional; conditions: PC-3, 72 h, read-out: GI
PC-3 [32] = assay: Cytotoxicity against human PC3 cells assessed as inhibition of cell viability at 10 ug/ml after 48 hrs by MTT assay; assay type: functional; conditions: PC-3, 48 h
PC-3 [33] = assay: Antiproliferative activity against human PC3 cells assessed as inhibition of cell growth at 5 ug/ml after 48 hrs by trypan blue dye exclusion assay; assay type: functional; conditions: PC-3, 48 h, read-out: GI

SMILES	IC50 [1] [µg/mL]	Activity (PC-3 [2])	Activity (PC-3 [3]) [%]	Activity (PC-3 [4]) [%]	Activity (PC-3 [5]) [%]	inhibition (INH) (PC-3 [6]) [%]	IC50 (PC-3 [8]) [µg/mL]	Activity (PC-3 [9]) [%]	Activity (PC-3 [10]) [%]	Activity (PC-3 [11]) [%]	Activity (PC-3 [12]) [%]	Activity (PC-3 [13]) [%]	inhibition (INH) (PC-3 [14]) [%]	Activity (PC-3 [15])	Activity (PC-3 [17]) [%]	Activity (PC-3 [18]) [%]	Activity (PC-3 [19]) [%]	Activity (PC-3 [20]) [%]	IC50 (LNCaP) [µg/mL]	other results
C[C@@H]1C[C@H]2[C@@H]3CCC4=CC(=O)C=C[C@]4(C)[C@@]3(F)[C@@H](O)C[C@]2(C)[C@@]1(O)C(=O)CO	–	–	–	–	–	–	–	–	–	–	–	–	–	–	–	–	–	–	–	Activity (Thymocyte): Active
CC(=O)O[C@H]1C(=O)[C@@]2(C)[C@H]([C@H](OC(=O)c3ccccc3)[C@]3(O)C[C@H](OC(=O)[C@H](O)[C@@H](NC(=O)c4ccccc4)c4ccccc4)C(C)=C1C3(C)C)[C@]1(OC(C)=O)CO[C@@H]1C[C@@H]2O [PACLITAXEL]	0.7 (≈ 0.82 µM)	Active	79.2	18.4	1.9	44	2.9 (≈ 3.4 µM)	62	18.1	15	0.6	14.7	48	Active	5.8	21.1	13	25	1.7 (≈ 1.99 µM)	Activity (PC-3 [7]): 39%; Activity (PC-3 [16]): Active
O=C1C2=C(C(=O)c3ccccc31)[C@H]1Oc3ccccc3[C@H]1CO2 [PTEROCARPANQUINONE]	1.3 (≈ 4.27 µM)	Active	43.4	17.8	1.6	43	1.7 (≈ 5.59 µM)	35	48.3	34.1	0.6	5.7	59	Active	22.5	7.7	13.2	51.8	1.1 (≈ 3.61 µM)	inhibition (INH) (PC-3 [21]): 60%; inhibition (INH) ([1]; human, rwpe-1, 48 h): Dose-dependent effect; inhibition at 1 µg/mL (PC-3 [22]): 12.8%; inhibition of growth at 1.7 µg/mL (PC-3 [23]): 60%; inhibition (PC-3 [8]): Dose-dependent effect; inhibition of growth at 5 µg/mL (PC-3 [24]): 78%; inhibition (INH) (PC-3 [25]): 58%; Activity (PC-3 [26]): Active; inhibition of growth at 5 µg/mL (PC-3 [27]): 93%; inhibition (INH) (PC-3 [28]): 27%; Activity [29]: Non-toxic; inhibition of growth at 1.7 µg/mL (PC-3 [30]): 68%; inhibition of growth at 1.7 µg/mL (PC-3 [31]): 60%; inhibition at 10 µg/mL (PC-3 [32]): 92.7%; inhibition of growth at 5 µg/mL (PC-3 [33]): 88%
